According to paper PMC10647531, “Effects of Icariin and Its Metabolites on GPCR Regulation and MK-801-Induced Schizophrenia-Like Behaviors in Mice” (Molecules, 2023):

How the values were obtained:
[1] = test system: ferrous-treated rat brain homogenates; assay: Lipid peroxidation assay (TBARS); format: biochemical; conditions: rat brain homogenate; mean ± SD of triplicate experiments
Protocol: Whole brain homogenates from male Sprague-Dawley rats (6 months old) were prepared according to procedures described in previous studies. […] After 1 h of incubation at 37 °C, the stop solution was added to the reaction mixture. After incubation in boiling water for 1 h, the reaction mixture was extracted with normal butanol and centrifuged (1300× g for 10 min).

MK-801-treated mice [2] = assay: Acoustic startle response task (ASRT), prepulse inhibition; format: in vivo
Protocol: (§1) The mice were housed in the University Animal Care Unit for one week prior to the experiment. Each cage housed 10 mice, and all mice had unlimited access to water and food. […] The Institutional Animal Care and Use Committee of Kyung Hee University approved the mouse experimental protocols (approval number: KHUASP-22-530).
The ASRT was conducted using SR-LAB startle chambers (San Diego Instruments, San Diego, CA, USA), consisting of a box that can lightly confine the mice, a system that can generate sound stimuli regularly, equipment that can measure animal movements, a program that can digitize the measured stimuli, and a source and speaker that can provide sound. The ASRT sessions included three trials: non-stimulus (PPI-1), startle (pulse alone, PPI-2), and prepulse (prepulse + pulse, PPI-3). The PPI-1 trial consisted of background noise only. The PPI-2 trial consisted of constant noise (80−120 dB, five sections) for 40 ms. The PPI-3 trial consisted of a noise prepulse ([…], which are 3, 6, 12, and 16 dB above the background noise, respectively) for 20 ms, a delay for 80 ms, and a 120 dB startle pulse for 40 ms. The percentage score for PPI was calculated as follows: % PPI = [(PPI-2 – PPI-3)/(PPI-2)] × 100(%).

MK-801-treated mice [3] = assay: Social novelty preference test (SNPT); format: in vivo
Description: as §1
Three chambers in a rectangular Plexiglas box (w × d × h: 94 × 28 × 30 cm) were used for the SNPT. The left, right, and central chambers were all joined together by openings (w × d: 6 × 28 cm). On the center of the left and right chambers, an iron muntin cylinder lockup (h × d: 11 × 12 cm) was installed. A test mouse was allowed to interact with another mouse that was trapped in the cylinder lockup. A test mouse was placed in the middle chamber during the acclimatization trial (trial-1, 10 min) and was allowed to freely explore all three compartments through the apertures. A mouse that was younger than the test mouse was placed in a lockup in the first sociability experiment (trial-2) following trial-1, while the other lockup remained. The test mouse was taken to the center compartment and allowed to wander around. The second sociability trial (trial-3) was performed immediately after trial-2. A new mouse that was younger than the test mouse was put in the empty cell during trial-3 (10 min), and the test mouse was put into an empty lockup and allowed to explore.

hMAO-A = target: T1, hMAO-A (Homo sapiens, UniProt P21397); assay: In vitro hMAO-inhibitory assay (MAO-Glo), hMAO-A; format: biochemical; conditions: mean ± SD of triplicate experiments
T1 sequence (P21397 1-527): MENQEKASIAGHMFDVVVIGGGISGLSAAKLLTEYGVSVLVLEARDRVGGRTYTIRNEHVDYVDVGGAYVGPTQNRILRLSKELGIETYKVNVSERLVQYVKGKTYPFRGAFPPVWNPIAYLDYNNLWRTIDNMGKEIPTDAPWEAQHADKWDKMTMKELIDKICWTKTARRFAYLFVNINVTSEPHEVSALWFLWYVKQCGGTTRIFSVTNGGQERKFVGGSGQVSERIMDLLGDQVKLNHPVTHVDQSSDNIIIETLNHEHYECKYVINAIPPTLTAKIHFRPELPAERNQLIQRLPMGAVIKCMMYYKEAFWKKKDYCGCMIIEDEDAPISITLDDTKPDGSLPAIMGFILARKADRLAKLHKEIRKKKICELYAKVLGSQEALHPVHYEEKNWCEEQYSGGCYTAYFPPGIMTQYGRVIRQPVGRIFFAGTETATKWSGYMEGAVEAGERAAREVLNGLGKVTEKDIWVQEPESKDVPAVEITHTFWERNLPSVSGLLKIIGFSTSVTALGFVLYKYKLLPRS
Description: (§2) A homogeneous luminescent assay using the MAO-Glo™ assay kit (Promega, Madison, WI, USA) was used to evaluate the hMAO-inhibitory activity of icariin and its metabolites according to the manufacturer’s protocol.

M4 mACh receptor (M4R) [4] = target: T2, M4 mACh receptor (M4R) (Homo sapiens, UniProt P08173); assay: cAMP agonist assay (M4R); conditions: 100 μM
T2 sequence (P08173 1-479): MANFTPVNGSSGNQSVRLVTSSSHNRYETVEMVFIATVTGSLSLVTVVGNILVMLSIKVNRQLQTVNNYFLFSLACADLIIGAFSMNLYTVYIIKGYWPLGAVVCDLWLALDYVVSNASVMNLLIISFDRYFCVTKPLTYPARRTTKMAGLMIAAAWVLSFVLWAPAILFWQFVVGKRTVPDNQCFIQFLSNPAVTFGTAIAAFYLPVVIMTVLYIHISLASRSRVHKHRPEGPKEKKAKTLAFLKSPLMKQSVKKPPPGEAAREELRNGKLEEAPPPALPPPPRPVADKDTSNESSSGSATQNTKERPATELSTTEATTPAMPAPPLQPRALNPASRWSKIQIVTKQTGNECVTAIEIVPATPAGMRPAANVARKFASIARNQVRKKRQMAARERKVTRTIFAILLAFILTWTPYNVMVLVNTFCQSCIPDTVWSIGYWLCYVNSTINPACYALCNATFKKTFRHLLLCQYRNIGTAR

hMAO-B = target: T3, hMAO-B (Homo sapiens, UniProt P27338); assay: In vitro hMAO-inhibitory assay (MAO-Glo), hMAO-B; format: biochemical; conditions: mean ± SD of triplicate experiments
T3 sequence (P27338 1-520): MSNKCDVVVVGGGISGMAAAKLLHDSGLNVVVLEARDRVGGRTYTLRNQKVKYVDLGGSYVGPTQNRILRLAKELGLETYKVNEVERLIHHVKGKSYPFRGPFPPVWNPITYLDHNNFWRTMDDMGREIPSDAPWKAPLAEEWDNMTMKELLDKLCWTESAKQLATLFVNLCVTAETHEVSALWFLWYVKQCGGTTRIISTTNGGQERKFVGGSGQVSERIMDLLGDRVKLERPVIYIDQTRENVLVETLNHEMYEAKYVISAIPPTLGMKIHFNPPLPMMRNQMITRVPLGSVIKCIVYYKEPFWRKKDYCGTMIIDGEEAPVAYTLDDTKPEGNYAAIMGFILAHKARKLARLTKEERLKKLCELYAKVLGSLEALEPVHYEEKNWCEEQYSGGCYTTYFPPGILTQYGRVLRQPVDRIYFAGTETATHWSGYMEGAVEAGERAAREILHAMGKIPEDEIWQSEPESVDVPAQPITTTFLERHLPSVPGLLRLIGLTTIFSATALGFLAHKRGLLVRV
Description: as §2

[5] = target: T4, vasopressin 1A receptor (V1AR) (Homo sapiens, UniProt P37288); format: cell-based; conditions: 100 μM; stimulus AVP (10 nM)
T4 construct: host or cells: CHO-K1
T4 sequence (P37288 whole entry): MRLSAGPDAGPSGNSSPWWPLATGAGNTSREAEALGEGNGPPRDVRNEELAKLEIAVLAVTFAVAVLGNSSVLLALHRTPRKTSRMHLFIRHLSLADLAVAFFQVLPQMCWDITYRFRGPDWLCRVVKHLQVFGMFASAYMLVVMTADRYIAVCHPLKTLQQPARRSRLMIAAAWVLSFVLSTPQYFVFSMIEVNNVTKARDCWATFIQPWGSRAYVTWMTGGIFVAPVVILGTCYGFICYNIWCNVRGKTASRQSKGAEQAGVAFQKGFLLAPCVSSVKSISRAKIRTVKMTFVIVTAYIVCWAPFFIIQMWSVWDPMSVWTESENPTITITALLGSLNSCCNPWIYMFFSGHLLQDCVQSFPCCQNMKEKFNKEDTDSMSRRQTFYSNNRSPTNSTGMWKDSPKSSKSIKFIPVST
Description: a All products including cell-line and reagents were provided by Cerep (Cel le L'Evescault, France).

Human D3R = target: T5, Human D3R (Homo sapiens, UniProt P35462); format: binding; conditions: 50 μM
T5 construct: expressed in transfected cells; host or cells: CHO-K1 (membrane homogenates)
T5 sequence (P35462 whole entry): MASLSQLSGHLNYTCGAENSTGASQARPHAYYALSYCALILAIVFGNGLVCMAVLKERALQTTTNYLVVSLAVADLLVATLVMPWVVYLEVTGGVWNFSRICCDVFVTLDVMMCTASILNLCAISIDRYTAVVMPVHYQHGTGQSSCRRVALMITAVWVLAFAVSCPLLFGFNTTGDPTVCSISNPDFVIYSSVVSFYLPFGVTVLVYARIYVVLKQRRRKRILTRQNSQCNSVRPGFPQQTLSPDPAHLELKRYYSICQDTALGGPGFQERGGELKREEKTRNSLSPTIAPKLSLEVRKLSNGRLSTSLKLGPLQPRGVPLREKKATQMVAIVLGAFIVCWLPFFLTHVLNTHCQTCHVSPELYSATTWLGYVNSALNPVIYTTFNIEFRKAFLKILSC
Protocol: (§3) Next, 10 μM (f.c.) (+)-butaclamol (for D3R) and 1 μM (f.c.) atropine (for M2R) were used to detect nonspecific binding in the respective assays. The binding affinity of a test compound was calculated as the inhibition (%) of control (radioligand)-specific binding.

[6] = design: method as in PMID 31844591; conditions: cited from earlier work
[7] = target: T6, muscarinic acetylcholine M2 receptor (M2R) (Homo sapiens, UniProt P08172); conditions: 100 μM; control agonist 300 nM ACh
T6 sequence (P08172 1-466): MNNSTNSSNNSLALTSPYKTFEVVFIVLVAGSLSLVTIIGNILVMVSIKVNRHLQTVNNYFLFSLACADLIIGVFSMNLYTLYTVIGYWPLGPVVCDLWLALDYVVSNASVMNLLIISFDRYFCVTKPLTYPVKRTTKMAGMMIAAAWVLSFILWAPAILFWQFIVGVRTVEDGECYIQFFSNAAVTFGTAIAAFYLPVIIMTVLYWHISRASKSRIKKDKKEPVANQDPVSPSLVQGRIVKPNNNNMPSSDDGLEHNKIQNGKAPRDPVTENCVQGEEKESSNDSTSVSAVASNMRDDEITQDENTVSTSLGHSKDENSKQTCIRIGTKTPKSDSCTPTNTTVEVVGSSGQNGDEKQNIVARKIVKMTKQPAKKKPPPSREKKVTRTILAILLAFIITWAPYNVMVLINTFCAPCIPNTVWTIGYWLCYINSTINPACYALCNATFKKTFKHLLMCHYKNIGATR

M4 mACh receptor (M4R) [8] = target: T2, M4 mACh receptor (M4R); assay: cAMP antagonist assay (M4R); conditions: read-out: Antagonist effect (%) M4 (inhibition of the control agonist response)
[9] = target: T6, muscarinic acetylcholine M2 receptor (M2R); assay: Radioligand binding assay ([3H]AF-DX 384, CHO-M2R membrane homogenates); design: host or cells: CHO-K1
Protocol: as §3

In the case of `Cc1c(C)c2c(c(C)c1O)CCC(C)(C(=O)O)O2` (centres unmarked) [Trolox, reference compound], the IC50 [1] is reported as 32.3 ± 3.21 µM.

In the case of `O=C1CCc2ccc(OCCCCN3CCN(c4cccc(Cl)c4Cl)CC3)cc2N1` [aripiprazole, reference compound], the “effect on MK-801-induced PPI deficits” value (MK-801-treated mice [2]; 1 mg/kg, i.p., at +12 and +16 dB above the background noise) is reported as “significantly reversed” and the “effect on MK-801-induced social interaction deficits” value (MK-801-treated mice [3]; 1 mg/kg, i.p.) is reported as “significantly reversed”.

With `COc1ccc(-c2oc3c(CC=C(C)C)c(O[C@@H]4O[C@H](CO)[C@@H](O)[C@H](O)[C@H]4O)cc(O)c3c(=O)c2O[C@@H]2O[C@@H](C)[C@H](O)[C@@H](O)[C@H]2O)cc1` [Icariin, icariin] the IC50 [1] was 301 ± 2.16 µM, the “effect on MK-801-induced PPI deficits” value (MK-801-treated mice [2]; 3 and 10 mg/kg, p.o., at +12 and +16 dB above the background noise) was “significantly reversed” and the IC50 (hMAO-A) was 422 ± 7.07 µM. For the same compound, the “effect on MK-801-induced social interaction deficits” value (MK-801-treated mice [3]; 3 and 10 mg/kg, p.o.) was “significantly reversed”, the “agonist effect assay on M4R” value (M4 mACh receptor (M4R) [4]) was “opposite effect to that of icariside II” and the IC50 (hMAO-B) was > 500 µM.

In the case of icariside II, the “antagonist effect on V1AR” value [5] is reported as 42.0%, the IC50 [1] is reported as 70.4 ± 2.04 µM and the “effect on MK-801-induced PPI deficits” value (MK-801-treated mice [2]; 1, 3, and 10 mg/kg, p.o.) is reported as “no significant effects”. For the same compound, the “effect on MK-801-induced social interaction deficits” value (MK-801-treated mice [3]; 1, 3, and 10 mg/kg, p.o.) was “significantly reversed”, the “agonist effect assay on M4R” value (M4 mACh receptor (M4R) [4]) was “has an agonist effect” and the “radioligand binding to the target binding site (D3R)” value (Human D3R) was “almost completely blocked”.

In the case of `COc1ccc(-c2oc3c(CC=C(C)C)c(O)cc(O)c3c(=O)c2O)cc1` [Icaritin, icaritin], the blood-brain barrier penetration [6] is listed as “could penetrate the blood-brain barrier (BBB) readily”, the IC50 [1] is listed as 81.3 ± 3.09 µM and the “effect on MK-801-induced PPI deficits” value (MK-801-treated mice [2]; 1, 3, and 10 mg/kg, p.o.) is listed as “no significant effects”. For the same compound, the IC50 (hMAO-A) was > 500 µM, the “Antagonist effect (%) M2” value [7] was 54.55% and the “effect on MK-801-induced social interaction deficits” value (MK-801-treated mice [3]; 3 and 10 mg/kg, p.o.) was “significantly reversed”. The inhibition at 100 µM (M4 mACh receptor (M4R) [8]) was 32.4%, the IC50 (hMAO-B) was > 500 µM and the “Radioligand specific binding (%) (M2R)” value ([9]; 100 μM) was 81.95%. The “Radioligand specific binding (%) (M2R)” value ([9]; 150 μM) was 64.00% and the “blocked radioligand binding to the target binding site (M2R)” value ([9]; 150 μM) was 36%.

For `C[C@]12N[C@H](Cc3ccccc31)c1ccccc12` [MK-801], the acoustic startle amplitude (MK-801-treated mice [2]; 0.2 mg/kg alone (i.p.), at 120 dB) was “significantly increased”, the “prepulse inhibition (PPI)” value (MK-801-treated mice [2]; 0.2 mg/kg alone (i.p.), at +3, +6, +12, and +16 dB above the background noise (70 dB)) was “decreased” and the “amount of time spent in the chamber with the unknown mouse” value (MK-801-treated mice [3]; alone, 0.2 mg/kg, i.p., compared with control group) was “considerably reduced”.
